Experiments:
[1] = test system: deoxyribonucleoside kinases from Aedes aegypti (PZG318); test: Nucleoside kinase activity (DE-81 filter paper assay, tritium labelled substrates) in extracts of KY895 cells transformed with PZG318; assay type: biochemical; settings: for Phosphorylation / activation by the mosquito deoxyribonucleoside kinase (in words): extract of KY895 transformed with PZG318; for Deoxyribonucleoside kinase specific activity in extract: substrate at fixed concentration of 100 μM
Protocol: (§1) This example describes how E. coli KY895 were transformed with the plasmid obtained according to Example 1, in order to express mosquito dNK.
(§2) KY895 cells were transformed by the expression plasmid of Example 1 using standard techniques, e.g. as described by e.g. Sambrook et al. [Sambrook et al.; Molecular Cloning: A Laboratory Manual, Cold Spring Harbor Lab., Cold Spring Harbor, N.Y. 1989].
(§3) Transformed cells were grown to an OD600 nm of 0.5-0.6 in LB/Ampicillin (100 μg/ml) medium at 37° C. and protein expression was induced by addition of 100 μM IPTG. The cells were further grown for 4 h at 25° C. and subsequently harvested by centrifugation. The cell pellet was subjected to sonification in the binding buffer A (20 mM NaPO4 pH 7,3; 150 mM NaCl; 10% Glycerol; and 0.1% Triton X-100) and subjected to centrifugation at 10,000×g for 30 minutes. Cell free extract was used for enzymatic activity assays.
Nucleoside kinase activities were determined by initial velocity measurments based on four time sample by the DE-81 filter paper assay using tritium labelled substrates. The assays were performed as described by Munch-Petersen et al. [Munch-Petersen B, Knecht W, Lenz C, Søndergaard L, Piskur J: Functional expression of a multisubstrate deoxyribonucleoside kinase from Drosophila melanogaster and its C-terminal deletion mutants; J. Biol. Chem. 2000 275 6673-6679].
The protein concentration was determined according to Bradford with BSA as standard protein [Bradford M M: A rapid and sensitive method for the quantitation of microgram quantities of protein utilizing the principle of protein-dye binding; Anal. Biochem. 1976 72 248-254]. SDS-PAGE was done according to the procedure of Laemmli[Laemmil U K: Cleavage of structural proteins during the assembly of the head of bacteriophage T4; Nature 1970 227 680-685], and proteins were visualized by Coomassie staining to verify recombinant protein expression.
The natural deoxyribonucleoside and deoxyribonucleoside analogs were tested at a fixed concentration of 100 μM. The specific activity in each extract is given in mU/ml.

[2] = test system: Extracts of KY895 Cells; test: Nucleoside kinase activity (DE-81 filter paper assay) in control extracts of KY895 cells (cells only, empty vector pGEX-2T); assay type: biochemical, E. coli; settings: extract of KY895 transformed with pGEX-2T (empty vector); substrate 100 μM; n.d. = not detectable
Protocol: as §1, §2, §3
Nucleoside kinase activities were determined by initial velocity measurments based on four time sample by the DE-81 filter paper assay using tritium labelled substrates. […]
The protein concentration was determined according to Bradford with BSA as standard protein [Bradford M M: A rapid and sensitive method for the quantitation of microgram quantities of protein utilizing the principle of protein-dye binding; Anal. Biochem. 1976 72 248-254]. […]

[3] = test system: KY895; test: Growth of E. coli KY895 on nucleoside analog plates, controls (cells only, empty vector pGEX-2T); assay type: cell-based; settings: 24 hours at 37° C.
Protocol: (§4) Deoxyribonucleoside kinases are of interest as suicide-genes to be used in gene-mediated therapy of cancer or viral infections. In this example the potential of the mosquito kinase of the invention to convert different nucleoside analogs are compared to that of the human Herpes simplex virus 1 thymidine kinase (HSV1-TK) in a bacterial test system.
(§5) The experiment was carried out essentially as described by Knecht et al. [Knecht W. Munch-Petersen B and Piskur J: identification of residues involved in the specificity and regulation of the highly efficient multisubstrate deoxyribonucleoside kinase from Drosophila melanogaster; J. Mol. Biol. […] 301 827-837]. Briefly, overnight cultures of transformed KY895 were diluted 200-fold in 10% glyercol and 2 μl drops of the dilutions were spotted on M9 minimal medium plates [Ausubel F, Brent R, Kingston R E, Moore D D, Seldman J G, Smitf J A & Struhl K (Eds.): Short protocols in molecular biology; 3rd edition (1995) pp. 1-2, Wiley, USA] supplemented with 0.2% glucose, 0.1% casamino acids, 100 μg/ml ampicillin and with or without nucleoside analogs. Growth was inspected visually after 24 hours of incubation at 37° C.
pGEX-2T is the empty vector and is available from Amersham-Pharmacia;

[4] = test system: KY895 transformed with pGEX-2T-HSV1-TK; test: Growth of transformed E. coli KY895 on nucleoside analog plates, transformed with pGEX-2T-HSV1-TK; assay type: cell-based; settings: 24 hours at 37° C.
Protocol: as §4, §5

[5] = test system: KY895 transformed with PZG318; test: Growth of transformed E. coli KY895 on nucleoside analog plates, transformed with PZG318 (mosquito dNK kinase); assay type: cell-based
Protocol: as §4, §5

Compound	Phosphorylation / activation by the mosquito deoxyribonucleoside kinase (in words) [1]	Deoxyribonucleoside kinase specific activity in extract [1] [mU/ml]	Deoxyribonucleoside kinase specific activity in extract [2] [mU/ml]	dFdC LD100 ([3]; KY895 cells only) [nM]	dFdC LD100 ([3]; KY895 transformed with pGEX-2T (empty vector)) [nM]	dFdC LD100 [4] [nM]	LD100 with mosquito dNK kinase (PZG318) lower than that of HSV1-TK ([5]; KY895 on nucleoside analog plates, PZG318 versus HSV1-TK)	dFdC LD100 ([5]; KY895 transformed with PZG318, M9 plates, growth inspected after 24 hours at 37° C.) [nM]
Nc1nc2c(ncn2COCCO)c(=O)[nH]1 [ACV, acyclovir]	also activated	0.3						
Nc1nc(O)c2ncn(COC(CO)CO)c2n1 [GCV, gancyclovir]	also activated	0.7						
Cc1cn([C@H]2C[C@H](O)[C@@H](CO)O2)c(=O)[nH]c1=O [Thd, thymidine]	able to phosphorylate	125						
Nc1ncnc2c1ncn2[C@H]1C[C@H](O)[C@@H](CO)O1 [dAdo, deoxyadenosine]	able to phosphorylate	364						
Nc1ccn([C@H]2C[C@H](O)[C@@H](CO)O2)c(=O)n1 [dCyt, deoxycytidine]	able to phosphorylate	124.5	0.1					
Nc1ccn([C@@H]2O[C@H](CO)[C@@H](O)C2(F)F)c(=O)n1 [dFdC, 2′,2′-difluorodeoxycytidine]	much stronger than dCyt	228		>100	>100	>100	at least 30 fold	3.16
Nc1nc2c(ncn2[C@H]2C[C@H](O)[C@@H](CO)O2)c(=O)[nH]1 [dGuo, deoxyguanosine]	able to phosphorylate	214.7						

From patent publication US20070202120A1, “Yellow Fever Mosquito Deoxyribonucleoside Kinases And Its Use” (priority 2003, published 2007)
